Experiments:
[1] = system: CS-1 melanoma cells; assay: In vitro growth of melanoma cells in co-culture with compound; format: cell-based, hamster; conditions: co-culture with the compound; data not shown
[2] = molecular target: T1, MMP2 (Homo sapiens, UniProt P08253); assay: [3H]-collagen IV degradation by purified active MMP2 without cells; format: biochemical; conditions: 4 nM active MMP2, 10 μM compound, no cells
T1 construct: purchased Calbiochem (La Jolla, Calif.)
T1 sequence (P08253 110-660): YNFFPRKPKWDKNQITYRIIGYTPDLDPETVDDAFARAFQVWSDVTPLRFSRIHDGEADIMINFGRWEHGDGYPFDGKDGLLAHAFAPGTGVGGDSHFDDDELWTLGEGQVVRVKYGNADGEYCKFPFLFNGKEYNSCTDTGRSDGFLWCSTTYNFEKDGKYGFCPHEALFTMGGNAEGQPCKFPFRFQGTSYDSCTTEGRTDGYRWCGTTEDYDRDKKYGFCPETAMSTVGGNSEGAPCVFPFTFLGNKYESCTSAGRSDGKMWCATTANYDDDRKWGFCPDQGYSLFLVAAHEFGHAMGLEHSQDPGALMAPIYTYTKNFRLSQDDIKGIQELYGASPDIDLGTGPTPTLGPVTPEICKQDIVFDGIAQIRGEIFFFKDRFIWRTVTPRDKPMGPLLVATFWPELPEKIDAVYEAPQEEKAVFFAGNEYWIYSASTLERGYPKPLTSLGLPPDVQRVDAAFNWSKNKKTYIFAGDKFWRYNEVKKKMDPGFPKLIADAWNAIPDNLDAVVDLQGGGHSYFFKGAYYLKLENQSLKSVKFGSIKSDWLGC
Description: (§1) CS-1 cells or β3CS-1 cells were incubated in adhesion buffer fibroblast basal medium (FBM) supplemented with 0.5% bovine serum albumin (BSA), 0.4 mM MnCl2 and 10 μg/ml aprotinin) containing either 4 nM purified active MMP2 alone, or in combination with 10 μM Compound 1 or Compound 12 for 45 minutes at 37° C. prior to washing and addition to the [^3H]-collagen IV-coated wells. Wells had been coated overnight with 50 μl of 0.414 mCi/ml [^3H]-collagen IV (ICN Biochemicals, Costa Mesa, Calif.) and washed extensively until the radioactivity in the recovered wash solution reached background. Alternatively, cells were treated as above in the absence of MMP2, or the MMP2 solutions were added directly to the wells without cells, as controls. Collagen IV degradation was quantitated by measuring the radioactivity released into the 50 μl of culture medium as determined in a liquid scintillation counter. For the assessment of biotinylated MMP2 binding to CS-1 cells, cells were suspended in adhesion buffer and incubated with 12 nM bMMP2 for 45 minutes at 37° C. in the presence or absence of 10 μM Compound 1 or Compound 12. Cells were subsequently washed before lysis and processing for SDS-PAGE and immunoblotting with an anti-biotin mAb.

[3] = system: bFGF-induced angiogenesis on chick CAM; assay: Chick chorioallantoic membrane (CAM) angiogenesis assay; format: in vivo; conditions: 10 day chick CAM, 3 μg/ml bFGF, 20 μl of 3 μM compound, 3 days; FIGS. 4A, 4B
Description: (§2) Angiogenesis was assessed essentially as described previously (Cell, 85, 683-93 (1996); Cell, 92, 391-400 (1998)). After stimulation with 3 μg/ml of basic fibroblast growth factor (bFGF), 10 day chick embryo CAMs were treated with 20 μl of 3 μM Compound 1 or Compound 12. Three days after induction, the CAMs were quantitated in a blind evaluation. CAMs from each group were pooled, minced, and extracted with 50 mM Tris, […], 0.1% Triton X-100 containing COMPLETE-brand protease inhibitor cocktail without EDTA (Boehringer, Mannheim, Germany) prior to analysis by zymography.

[4] = molecular target: T2, integrin αvβ3 (Homo sapiens, UniProt P05106+P06756); assay: Direct binding of [14C]-Compound 1 to immobilized integrin, solid phase
T2 construct: purchased Merck KGaA or Chemicon International
Description: (§3) Dried wells were separated and immersed in BetaMax liquid scintillation cocktail (ICN Biochemicals, Costa Mesa, Calif.) for quantitation. From this binding curve a subsaturating concentration (3 μM) of [^14C]-Compound 1 was examined in the presence and absence of a 25-fold molar excess ([…]) of unlabeled Compound 1 or Compound 12, or 100 μM cyclic RGD or RAD peptide. Control was bVN, used and detected as described above.

[5] = molecular target: T3, MMP2 binding to integrin αvβ3 (Homo sapiens, UniProt P05106+P06756); assay: Solid phase integrin binding assay: biotinylated MMP2 binding to immobilized integrin; conditions: bMMP2 3-5 nM, FIG. 2A
T3 construct: purchased Merck KGaA or Chemicon International (integrin); Chemicon (proMMP2) or Calbiochem (active MMP2)
Description: (§4) Purified integrins were adsorbed overnight onto microtiter wells (1-5 μg/ml, […]) prior to blocking with Caseinblocker (Pierce, Rockford, Ill.). Purified biotinylated MMP2 (bMMP2, 3-5 nM) in binding buffer (50 mM Tris, pH 8, 150 mM NaCl, 1 mM MgCl2, 0.5 mM MnCl2) was added to the wells in the presence or absence of Compound 1, Compound 12, cyclic RGD or RAD peptides, or buffer vehicle alone. Control wells received no integrin. Biotinylated vitronectin (bVN, 1 μg/ml) was used as a reference. Bound protein was detected with HRP-anti-biotin mAb and quantitated at 450 nm with 3,3′,5,5′-tetramethylbenzidine solution (TMB; a substrate for the peroxidase) (BioRad, Hercules, Calif.).

[6] = system: CS-1 cells; assay: Biotinylated MMP2 cell-binding assay, β3-negative cells; format: cell-based, hamster; conditions: 12 nM bMMP2, 10 μM compound; FIG. 3B
Description: as §1, with “Wells” for “CS-1 cells or β3CS-1 cells were incubated in adhesion buffer fibroblast basal medium (FBM) supplemented with 0.5% bovine serum albumin (BSA), 0.4 mM MnCl2 and 10 μg/ml aprotinin) containing either 4 nM purified active MMP2 alone, or in combination with 10 μM Compound 1 or Compound 12 for 45 minutes at 37° C. prior to washing and addition to the [^3H]-collagen IV-coated wells. Wells”

[7] = system: αvβ3-negative CS-1 melanoma tumors; assay: Tumor growth assay on chick CAM; format: in vivo
Description: Primary tumors were grown on CAMs of 9-day embryos by implantation 5×10^6 CS-1 cells and incubation for 7 days. At this point, 50 mg sections of these tumors were subcultured onto fresh 9-day CAMs and allowed to implant for 24 hours before a single intravenous (IV) injection with 100 μl of 100 μM of test compounds in Hank's Balanced Saline Solution (HBSS). Buffer alone was used as control. Tumors were incubated for a total of 10 days, harvested and trimmed free of excess stromal tissue before determining wet weight and processing for histology.
Snap-frozen CS-1 tumor sections were fixed with 4% paraformaldehyde and permeablized with 0.1% Triton X-100. Sections were blocked with 5% bovine serum albumin (BSA) in phosphate buffered saline (PBS) prior to staining with an anti-vWF pAb and visualization with an Alexa 568-conjugated anti-rabbit secondary antibody. Samples were analyzed on a MRC1024 confocal microscope (BioRad, Hercules, Calif.). Blood vessel density was quantitated with a 20×objective on four fields per section and four tumors per condition.

[8] = system: MMP2; assay: Zymography of chick CAM lysates; format: in vivo; conditions: FIG. 4C
Description: as §2
Zymography. Chick CAM lysates were prepared as described above and equal quantities of protein were separated in the absence of reducing agents or boiling on polyacrylamide gels embedded with 0.2% gelatin. The gels were washed with 2% Triton X-100, followed by extensive washing with water prior to overnight incubation at 37° C. in collagenase buffer (50 mM Tris 7.4, 200 mM NaCl 10 mM CaCl2). Gelatinolytic activity was visualized by staining the gels with 0.5% Coomassie blue.

[9] = system: β3CS-1 cells; assay: Cell-mediated [3H]-collagen IV degradation via MMP2; format: cell-based, hamster; conditions: 4 nM active MMP2, 10 μM compound, FIG. 3A
Description: as §1, with “Wells” for “CS-1 cells or β3CS-1 cells were incubated in adhesion buffer fibroblast basal medium (FBM) supplemented with 0.5% bovine serum albumin (BSA), 0.4 mM MnCl2 and 10 μg/ml aprotinin) containing either 4 nM purified active MMP2 alone, or in combination with 10 μM Compound 1 or Compound 12 for 45 minutes at 37° C. prior to washing and addition to the [^3H]-collagen IV-coated wells. Wells”

[10] = molecular target: T1, MMP2; assay: Direct binding of Compound 1 to MMP2 coated on the microtiter well; conditions: data not shown
[11] = molecular target: integrin α5β1 (Homo sapiens, UniProt P05556+P08648); assay: Direct binding of [14C]-Compound 1 to immobilized control integrin, solid phase
Description: as §3

[12] = system: β3CS-1 cells; assay: Biotinylated MMP2 cell-binding assay, β3-positive cells; format: cell-based, hamster
Description: as §1, with “For the assessment of biotinylated MMP2 binding to CS-1 cells, cells were suspended in adhesion buffer and incubated with 12 nM bMMP2 for 45 minutes at 37° C. in the presence or absence of 10 μM Compound 1 or Compound 12. Cells were subsequently washed before lysis and processing for SDS-PAGE and immunoblotting with an anti-biotin mAb.” left out
Immunoblotting. Equal quantities of protein were separated by SDS-PAGE under reducing conditions and electroblotted to an Immobilon-P membrane (Millipore, Bedford, Md.). The membrane was blocked and immobilized proteins were detected by incubation with an antigen-specific primary antibody, followed by an HRP-conjugated secondary antibody as required. […]

[13] = molecular target: T4, MMP2 and tissue inhibitor of metalloproteinase 2 (TIMP2) (Homo sapiens, UniProt P08253); assay: Binding between MMP2 and TIMP2
T4 sequence (P08253 110-660): T1 sequence (P08253 110-660)

[14] = molecular target: T5, vitronectin binding to integrin αvβ3 (Homo sapiens, UniProt P05106+P06756); assay: Solid phase integrin binding assay: biotinylated vitronectin (bVN) binding to immobilized integrin
T5 construct: purchased Merck KGaA or Chemicon International (integrin)
Description: as §4, §3

T3 sequence (P06756 31-889 limits assumed): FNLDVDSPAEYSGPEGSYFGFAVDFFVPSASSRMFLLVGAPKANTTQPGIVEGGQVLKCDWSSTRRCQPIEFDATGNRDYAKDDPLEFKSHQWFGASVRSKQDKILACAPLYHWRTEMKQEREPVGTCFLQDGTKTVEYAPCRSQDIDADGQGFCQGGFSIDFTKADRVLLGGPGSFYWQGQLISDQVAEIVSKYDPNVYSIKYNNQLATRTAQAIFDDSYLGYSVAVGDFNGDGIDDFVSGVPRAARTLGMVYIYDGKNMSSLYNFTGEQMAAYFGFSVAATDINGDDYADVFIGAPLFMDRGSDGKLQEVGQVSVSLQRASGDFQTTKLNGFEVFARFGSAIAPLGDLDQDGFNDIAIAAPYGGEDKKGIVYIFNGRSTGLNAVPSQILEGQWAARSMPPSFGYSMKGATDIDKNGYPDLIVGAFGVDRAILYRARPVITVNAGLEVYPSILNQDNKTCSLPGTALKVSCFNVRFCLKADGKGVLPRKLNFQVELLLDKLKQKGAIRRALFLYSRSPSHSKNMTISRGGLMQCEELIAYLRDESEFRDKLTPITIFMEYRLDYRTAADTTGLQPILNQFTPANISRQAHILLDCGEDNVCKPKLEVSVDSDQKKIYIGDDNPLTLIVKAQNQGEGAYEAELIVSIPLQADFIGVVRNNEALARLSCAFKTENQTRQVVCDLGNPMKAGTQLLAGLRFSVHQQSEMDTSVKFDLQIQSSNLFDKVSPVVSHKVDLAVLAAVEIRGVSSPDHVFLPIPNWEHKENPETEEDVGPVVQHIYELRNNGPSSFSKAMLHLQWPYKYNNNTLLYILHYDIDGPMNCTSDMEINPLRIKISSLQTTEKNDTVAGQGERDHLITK
T3 sequence (P06756 891-1048 limits assumed): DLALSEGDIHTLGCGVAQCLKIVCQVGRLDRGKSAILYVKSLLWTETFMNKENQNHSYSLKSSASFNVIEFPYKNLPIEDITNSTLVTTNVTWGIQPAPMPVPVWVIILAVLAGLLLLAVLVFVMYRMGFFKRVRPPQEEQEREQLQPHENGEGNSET
T3 sequence (P05106 27-788): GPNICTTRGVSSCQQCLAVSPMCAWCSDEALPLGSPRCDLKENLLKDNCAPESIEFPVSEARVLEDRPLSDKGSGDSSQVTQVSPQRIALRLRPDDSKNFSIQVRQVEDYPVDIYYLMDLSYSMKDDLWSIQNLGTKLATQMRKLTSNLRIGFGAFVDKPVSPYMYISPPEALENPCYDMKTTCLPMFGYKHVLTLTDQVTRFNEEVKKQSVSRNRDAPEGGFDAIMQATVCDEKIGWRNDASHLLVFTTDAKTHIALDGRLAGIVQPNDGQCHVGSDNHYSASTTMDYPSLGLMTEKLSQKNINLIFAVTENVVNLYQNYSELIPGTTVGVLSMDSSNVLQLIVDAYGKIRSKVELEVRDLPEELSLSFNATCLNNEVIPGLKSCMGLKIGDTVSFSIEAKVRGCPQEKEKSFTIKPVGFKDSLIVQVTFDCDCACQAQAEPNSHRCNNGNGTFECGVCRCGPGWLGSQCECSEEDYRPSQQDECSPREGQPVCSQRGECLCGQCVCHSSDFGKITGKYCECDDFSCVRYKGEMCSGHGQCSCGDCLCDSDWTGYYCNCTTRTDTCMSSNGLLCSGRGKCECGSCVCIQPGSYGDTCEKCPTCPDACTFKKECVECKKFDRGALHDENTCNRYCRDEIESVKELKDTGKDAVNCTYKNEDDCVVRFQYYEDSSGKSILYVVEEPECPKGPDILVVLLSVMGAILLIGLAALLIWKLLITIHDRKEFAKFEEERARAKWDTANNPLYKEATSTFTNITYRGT
T2 sequence (P06756 31-889 limits assumed): as the sequence (P06756 31-889 limits assumed) above
T2 sequence (P06756 891-1048 limits assumed): as the sequence (P06756 891-1048 limits assumed) above
T2 sequence (P05106 27-788): as the sequence (P05106 27-788) above
T5 sequence (P06756 31-889 limits assumed): as the sequence (P06756 31-889 limits assumed) above
T5 sequence (P06756 891-1048 limits assumed): as the sequence (P06756 891-1048 limits assumed) above
T5 sequence (P05106 27-788): as the sequence (P05106 27-788) above
Chain of integrin α5β1 (P08648 42-894 limits assumed): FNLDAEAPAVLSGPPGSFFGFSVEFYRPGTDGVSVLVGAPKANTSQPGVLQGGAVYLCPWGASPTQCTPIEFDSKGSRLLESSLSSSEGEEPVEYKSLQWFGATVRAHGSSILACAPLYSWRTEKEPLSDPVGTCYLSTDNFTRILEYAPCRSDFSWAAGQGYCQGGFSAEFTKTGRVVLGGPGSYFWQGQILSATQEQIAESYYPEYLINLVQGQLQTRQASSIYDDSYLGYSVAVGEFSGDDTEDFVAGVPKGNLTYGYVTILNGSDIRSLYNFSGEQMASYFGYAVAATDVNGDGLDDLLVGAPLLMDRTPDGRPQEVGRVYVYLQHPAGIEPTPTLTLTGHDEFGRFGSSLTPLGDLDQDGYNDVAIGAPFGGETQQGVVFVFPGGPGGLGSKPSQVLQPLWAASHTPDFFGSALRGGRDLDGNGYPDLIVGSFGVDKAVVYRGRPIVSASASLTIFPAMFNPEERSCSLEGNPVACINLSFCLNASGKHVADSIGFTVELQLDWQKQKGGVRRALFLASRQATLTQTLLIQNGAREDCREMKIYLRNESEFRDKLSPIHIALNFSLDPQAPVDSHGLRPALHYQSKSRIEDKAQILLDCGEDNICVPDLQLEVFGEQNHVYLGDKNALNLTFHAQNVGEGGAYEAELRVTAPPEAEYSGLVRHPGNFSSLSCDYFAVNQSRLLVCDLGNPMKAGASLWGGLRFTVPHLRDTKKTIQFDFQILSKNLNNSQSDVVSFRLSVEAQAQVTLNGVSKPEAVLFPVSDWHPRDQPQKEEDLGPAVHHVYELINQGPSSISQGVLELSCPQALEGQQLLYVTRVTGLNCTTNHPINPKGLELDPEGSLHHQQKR
Chain of integrin α5β1 (P08648 895-1049 limits assumed): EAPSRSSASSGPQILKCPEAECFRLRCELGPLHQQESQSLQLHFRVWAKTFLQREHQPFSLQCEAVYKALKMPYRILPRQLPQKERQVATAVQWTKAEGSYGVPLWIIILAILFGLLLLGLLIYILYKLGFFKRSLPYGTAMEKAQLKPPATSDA
Chain of integrin α5β1 (P05556 21-798): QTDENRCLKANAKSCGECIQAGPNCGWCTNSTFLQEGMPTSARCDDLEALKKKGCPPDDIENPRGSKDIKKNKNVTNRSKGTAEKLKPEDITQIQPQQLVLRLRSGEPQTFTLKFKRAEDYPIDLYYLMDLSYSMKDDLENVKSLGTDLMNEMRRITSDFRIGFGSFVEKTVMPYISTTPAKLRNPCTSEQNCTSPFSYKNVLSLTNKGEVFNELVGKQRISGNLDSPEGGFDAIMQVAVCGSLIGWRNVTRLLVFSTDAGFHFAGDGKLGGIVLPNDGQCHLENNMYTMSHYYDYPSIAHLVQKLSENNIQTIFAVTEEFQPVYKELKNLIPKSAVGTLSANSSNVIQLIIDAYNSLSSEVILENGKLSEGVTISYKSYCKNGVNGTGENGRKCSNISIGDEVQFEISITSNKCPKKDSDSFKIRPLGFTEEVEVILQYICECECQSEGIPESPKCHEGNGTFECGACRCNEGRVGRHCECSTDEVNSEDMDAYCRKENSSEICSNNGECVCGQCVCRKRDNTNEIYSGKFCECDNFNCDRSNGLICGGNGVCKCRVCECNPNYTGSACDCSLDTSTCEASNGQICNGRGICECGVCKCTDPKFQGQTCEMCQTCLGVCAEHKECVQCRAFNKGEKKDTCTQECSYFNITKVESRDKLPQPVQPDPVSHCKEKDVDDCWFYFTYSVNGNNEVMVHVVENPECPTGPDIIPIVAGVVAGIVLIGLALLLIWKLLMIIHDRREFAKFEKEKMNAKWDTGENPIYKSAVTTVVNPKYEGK

O=C(CNC(=O)c1cccc(C(=O)NCC(=O)NCCCC[C@H](NC(=O)OCc2ccc(C(F)(F)F)cc2)C(=O)O)c1)NCCCC[C@H](NC(=O)OCc1ccc(C(F)(F)F)cc1)C(=O)O [Compound 1, N,N^1-Bis-[(5-(S)-carboxy-5-[((4-trifluoromethyl)benzyloxycarbonyl)amino]-pentyl)carboxamidomethyl]benzene-1,3-dicarboxamide]
Growth of CS-1 melanoma cells in vitro [1]: not affected | Effect on [3H]collagen IV degradation by purified active MMP2 in the absence of cells [2]: still able to degrade | Effect on development of new blood vessels in bFGF-stimulated CAM [3]: almost completely abolished | Inhibition of [14C]-Compound 1 binding to integrin αvβ3 by unlabeled compound ([4]; 3 μM [14C]-Compound 1, 25-fold molar excess of unlabeled compound, FIG. 2C): inhibited | Direct binding to integrin αvβ3 ([4]; [14C]-labeled Compound 1, titration, FIG. 2B): bound directly | Effect on MMP2 binding to integrin αvβ3 [5]: completely abrogated | Effect on biotinylated MMP2 binding to β3-negative CS-1 cells [6]: not diminished | Overall tumor blood vessel density ([7]; anti-vWF immunofluorescence of tumor sections): gross reduction | Cell death within the tumor mass ([7]; single IV injection, 100 μl of 100 μM): significant cell death | Tumor weight ([7]; single IV injection, 100 μl of 100 μM, 10 days, wet weight): significantly retarded | Growth of transplanted CS-1 melanoma tumors on chick CAM ([7]; single IV injection, 100 μl of 100 μM, 10 days, FIG. 5A): significantly retarded | Tumor surface vasculature ([7]; single IV injection, 100 μl of 100 μM, FIG. 5A): gross reduction | Levels of active MMP2 (62 kDa) in CAM tissues, treated versus untreated [8]: equivalent levels of active MMP2 | Overall levels of MMP2 in CAM lysates [8]: unaffected | Effect on MMP2-enhanced cell-mediated [3H]collagen IV degradation [9]: specifically abolished | Direct binding to MMP2 coated on the well [10]: no binding | Direct binding to control integrin α5β1 ([11]; [14C]-labeled Compound 1, FIG. 2B): minimal interaction | Direct binding to integrin α5β1 at higher concentrations ([11]; higher concentrations of compound, data not shown): negligible binding | Effect on enhanced biotinylated MMP2 binding to β3CS-1 cells ([12]; 12 nM bMMP2, 10 μM compound, FIG. 3B): specifically suppressed | Biotinylated MMP2 binding to β3CS-1 cells, corrected for lane loading ([12]; 10 μM compound, corrected by anti-actin mAb staining, FIG. 3B lane 2): reduced the binding of MMP2 to the β3CS-1 cells to the level observed in the absence αvβ3 | Effect on binding between MMP2 and TIMP2 [13]: not inhibited

COC(=O)[C@H](CCCCNC(=O)CNC(=O)c1ccccc1)NC(=O)OCc1ccc(C(F)(F)F)cc1 [Compound 6, (S)-Methyl 6-[2-(benzoylamino)acetamido]-2-[(4-trifluoromethyl)benzyloxycarbonyl)hexanoate]
Effect on MMP2 binding to integrin αvβ3 [5]: slightly less active than Compound 1

COC(=O)[C@H](CCCCNC(=O)CNC(=O)COCC(=O)O)NC(=O)OCc1ccc(C(F)(F)F)cc1 [Compound 8]
Effect on MMP2 binding to integrin αvβ3 [5]: inactive

O=C(CNC(=O)c1cccc(C(=O)NCC(=O)NCCCC[C@H](NC(=O)c2ccccc2)C(=O)O)c1)NCCCC[C@H](NC(=O)c1ccccc1)C(=O)O [Compound 12, N,N′-Bis-[N-(-5-(S)-((benzoyl)amino)-5-(carboxy)pentyl)carboxamidomethyl]benzene-1,3-dicarboxamide]
Effect on [3H]collagen IV degradation by purified active MMP2 in the absence of cells [2]: still able to degrade | Effect on development of new blood vessels in bFGF-stimulated CAM [3]: ineffective | Effect on MMP2 binding to integrin αvβ3 [5]: neither the control compound nor the control peptide cRADfV interfered | Effect on biotinylated MMP2 binding to β3-negative CS-1 cells [6]: not diminished | Effect on MMP2-enhanced cell-mediated [3H]collagen IV degradation [9]: negligible effect

cRGDfV [reference compound]
Inhibition of [14C]-Compound 1 binding to integrin αvβ3 by peptide ([4]; 3 μM [14C]-Compound 1, 100 μM cyclic peptide, FIG. 2D): inability of the cRGDfV peptide to inhibit | Effect on MMP2 binding to integrin αvβ3 [5]: lack of effect | Inhibition of bVN binding to immobilized integrin αvβ3 by peptide ([14]; 100 μM cyclic peptide, FIG. 2D): completely abolished | Effect on vitronectin binding to integrin αvβ3 ([14]; bVN 1 μg/ml, FIG. 2A): inhibited
